Assay results as given in PubChem BioAssay AID212 (DTP/NCI, 2004).
Where “and” joins values, the source holds several entries; their conditions need not be identical. Equal entries are not always repeated. Results filed as inconclusive are left out.

Tested on: BDF1 mice, colon carcinoma 38 sc, T/C %
Assay: NCI In Vivo Anticancer Drug Screen. Data for tumor model Colon Carcinoma 38 (subcutaneous) in B6D2F1 (BDF1) mice
Conditions: endpoint: median tumor weight (est.), higher = larger tumour
In short: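 Mice with transplanted tumors are treated with compound or vehicle. Survival or tumor size is then measured in both groups. The ratio of treated to control gives the reported figure.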

[1] = dose: 25.0 mg/kg/injection, schedule: Q07DX002 (ip), vehicle: suspension in saline
[2] = dose: 50.0 mg/kg/injection, schedule: Q07DX002 (ip), vehicle: suspension in saline
[3] = dose: 100.0 mg/kg/injection, schedule: Q07DX002 (ip), vehicle: suspension in saline
[4] = dose: 200.0 mg/kg/injection, schedule: Q07DX002 (ip), vehicle: suspension in saline
[5] = dose: 400.0 mg/kg/injection, schedule: Q07DX002 (ip), vehicle: suspension in saline
[6] = dose: 100.0 mg/kg/injection, schedule: Q07DX002 (ip), vehicle: saline
[7] = dose: 25.0 mg/kg/injection, schedule: Q07DX002 (ip), vehicle: saline with Tween-80
[8] = dose: 50.0 mg/kg/injection, schedule: Q07DX002 (ip), vehicle: saline with Tween-80
[9] = dose: 100.0 mg/kg/injection, schedule: Q07DX002 (ip), vehicle: saline with Tween-80
[10] = dose: 200.0 mg/kg/injection, schedule: Q07DX002 (ip), vehicle: saline with Tween-80
[11] = dose: 50.0 mg/kg/injection, schedule: Q07DX002 (ip), vehicle: Klucel (hydroxypropylcellulose) (HPC)
[12] = dose: 100.0 mg/kg/injection, schedule: Q07DX002 (ip), vehicle: Klucel (hydroxypropylcellulose) (HPC)
[13] = dose: 25.0 mg/kg/injection, schedule: Q07DX002 (ip), vehicle: Klucel (hydroxypropylcellulose) (HPC)
[14] = dose: 200.0 mg/kg/injection, schedule: Q07DX002 (ip), vehicle: Klucel (hydroxypropylcellulose) (HPC)
[15] = dose: 6.25 mg/kg/injection, schedule: Q07DX002 (ip), vehicle: saline with Tween-80
[16] = dose: 12.5 mg/kg/injection, schedule: Q07DX002 (ip), vehicle: Klucel (hydroxypropylcellulose) (HPC)

O=C1OC(=O)[C@H]2[C@@H]1[C@H]1C=C[C@@H]2OC1=O
T/C [1]: 59 % of control | T/C [2]: 65 % of control | T/C [3]: 44 % of control | T/C [4]: 62 % of control | T/C [5]: 71 % of control | T/C (dose: 800.0 mg/kg/injection, schedule: Q07DX002 (ip), vehicle: suspension in saline): 97 % of control

Nc1cccc(=O)[nH]1
T/C [1]: 116 % of control | T/C (dose: 50.0 mg/kg/injection, schedule: Q07DX002 (ip), vehicle: saline): 92 % of control | T/C [2]: 66 % of control | T/C [6]: 113 % of control | T/C [3]: 87 % of control | T/C (dose: 200.0 mg/kg/injection, schedule: Q07DX002 (ip), vehicle: saline): 94 % of control | T/C [4]: 77 % of control | T/C (dose: 400.0 mg/kg/injection, schedule: Q07DX002 (ip), vehicle: saline): 91 % of control | T/C [5]: 74 % of control | T/C (dose: 800.0 mg/kg/injection, schedule: Q07DX002 (ip), vehicle: saline): 95 % of control

CC(=O)Nc1ccc(Nc2ccc(C(=C3C=CC(=[N+](C)CCC#N)C=C3)c3ccc(N(C)CCC#N)cc3)cc2)cc1
T/C [7]: 77 % of control and 93 % of control | T/C [8]: 91 % of control | T/C [9]: 52 % of control

CCCCCC1c2cc(O)ccc2OC1N1CCOCC1 (stereo unspecified)
T/C (dose: 12.0 mg/kg/injection, schedule: Q07DX002 (ip), vehicle: saline with Tween-80): 107 % of control | T/C [7]: 161 % of control | T/C [9]: 169 % of control | T/C [10]: 55 % of control | T/C (dose: 400.0 mg/kg/injection, schedule: Q07DX002 (ip), vehicle: saline with Tween-80): 170 % of control | T/C (dose: 450.0 mg/kg/injection, schedule: Q07DX002 (ip), vehicle: saline with Tween-80): 120 % of control | T/C (dose: 900.0 mg/kg/injection, schedule: Q07DX002 (ip), vehicle: saline with Tween-80): 154 % of control

CCN(CC)CCOCc1cccc2c(=O)cc(-c3ccccc3)oc12
T/C [11]: 66 % of control | T/C [12]: 57 % of control

COc1ccc2ccccc2c1C1NC(=O)c2ccccc2N1 (stereo unspecified)
T/C [13]: 76 % of control | T/C [11]: 93 % of control | T/C [12]: 59 % of control | T/C [14]: 52 % of control | T/C (dose: 400.0 mg/kg/injection, schedule: Q07DX002 (ip), vehicle: Klucel (hydroxypropylcellulose) (HPC)): 69 % of control | T/C (dose: 800.0 mg/kg/injection, schedule: Q07DX002 (ip), vehicle: Klucel (hydroxypropylcellulose) (HPC)): 69 % of control

O=S1(=O)C=C(c2ccccc2)C(c2ccccc2)=C1
T/C [15]: 112 % of control and 97 % of control | T/C [8]: 62 % of control and 80 % of control | T/C [9]: 84 % of control | T/C [10]: 88 % of control

CC1=C[S+](c2ccccc2)c2cccc3cc4ccccc4c1c23 (stereo unspecified)
T/C (dose: 0.5 mg/kg/injection, schedule: Q07DX002 (ip), vehicle: saline with Tween-80): 109 % of control | T/C (dose: 1.0 mg/kg/injection, schedule: Q07DX002 (ip), vehicle: saline with Tween-80): 162 % of control | T/C (dose: 2.0 mg/kg/injection, schedule: Q07DX002 (ip), vehicle: saline with Tween-80): 151 % of control | T/C (dose: 4.0 mg/kg/injection, schedule: Q07DX002 (ip), vehicle: saline with Tween-80): 114 % of control

O=C(NO)c1ccc(O)c(O)c1
T/C (dose: 50.0 mg/kg/injection, schedule: Q07DX002 (ip), vehicle: water): 88 % of control | T/C (dose: 100.0 mg/kg/injection, schedule: Q07DX002 (ip), vehicle: water): 92 % of control | T/C (dose: 200.0 mg/kg/injection, schedule: Q07DX002 (ip), vehicle: water): 85 % of control | T/C (dose: 400.0 mg/kg/injection, schedule: Q07DX002 (ip), vehicle: water): 48 % of control

COC1CC(CC2CCC(C)C(C(C)C(=O)O)O2)OC2(OC(C)(C3CCC(C)(C4OC(C5OC(O)(CO)C(C)CC5C)CC4C)O3)CC2C)C1C (stereo unspecified)
T/C (dose: 0.3 mg/kg/injection, schedule: Q07DX002 (ip), vehicle: Klucel (hydroxypropylcellulose) (HPC)): 61 % of control | T/C (dose: 0.31 mg/kg/injection, schedule: Q07DX002 (ip), vehicle: Klucel (hydroxypropylcellulose) (HPC)): 42 % of control | T/C (dose: 1.25 mg/kg/injection, schedule: Q07DX002 (ip), vehicle: Klucel (hydroxypropylcellulose) (HPC)): 74 % of control and 82 % of control | T/C (dose: 2.5 mg/kg/injection, schedule: Q07DX002 (ip), vehicle: Klucel (hydroxypropylcellulose) (HPC)): 58 % of control and 70 % of control | T/C (dose: 5.0 mg/kg/injection, schedule: Q07DX002 (ip), vehicle: Klucel (hydroxypropylcellulose) (HPC)): 46 % of control and 55 % of control | T/C (dose: 10.0 mg/kg/injection, schedule: Q07DX002 (ip), vehicle: Klucel (hydroxypropylcellulose) (HPC)): 52 % of control

CN(C)N=Nc1ccccc1
T/C [16]: 80 % of control and 86 % of control | T/C [13]: 42 % of control and 49 % of control | T/C [12]: 24 % of control and 27 % of control

COC(=O)Nc1cccc(-c2nc3ccc(NC(=O)OC)cc3c(=O)n2-c2ccccc2)c1
T/C (dose: 32.0 mg/kg/injection, schedule: Q07DX003 (ip), vehicle: Klucel (hydroxypropylcellulose) (HPC)): 78 % of control | T/C (dose: 64.0 mg/kg/injection, schedule: Q07DX003 (ip), vehicle: Klucel (hydroxypropylcellulose) (HPC)): 70 % of control | T/C (dose: 128.0 mg/kg/injection, schedule: Q07DX003 (ip), vehicle: Klucel (hydroxypropylcellulose) (HPC)): 87 % of control | T/C (dose: 256.0 mg/kg/injection, schedule: Q07DX003 (ip), vehicle: Klucel (hydroxypropylcellulose) (HPC)): 30 % of control

Cc1nn(CCO)c(C)c1N=[N+]([O-])c1c(C)nn(CCO)c1C
T/C (dose: 6.25 mg/kg/injection, schedule: Q07DX002 (ip), vehicle: Klucel (hydroxypropylcellulose) (HPC)): 116 % of control | T/C [15]: 102 % of control | T/C [16]: 86 % of control | T/C (dose: 12.5 mg/kg/injection, schedule: Q07DX002 (ip), vehicle: saline with Tween-80): 98 % of control | T/C [13]: 108 % of control and 91 % of control | T/C [11]: 100 % of control and 104 % of control | T/C [8]: 86 % of control | T/C [14]: 24 % of control | T/C [10]: 79 % of control

CNC(=O)ON(C(C)=O)C(=O)NC
T/C (dose: 25.0 mg/kg/injection, schedule: Q07DX002 (ip), vehicle: saline): 87 % of control and 106 % of control | T/C [6]: 103 % of control

C[n+]1cccc(NC(=O)c2ccc(NC(=O)C34CCC(C(=O)Nc5ccc(C(=O)Nc6ccc[n+](C)c6)cc5)(CC3)CC4)cc2)c1
T/C (dose: 10.0 mg/kg/injection, schedule: Q07DX002 (ip), vehicle: saline with Tween-80): 60 % of control | T/C (dose: 20.0 mg/kg/injection, schedule: Q07DX002 (ip), vehicle: saline with Tween-80): 57 % of control | T/C (dose: 22.5 mg/kg/injection, schedule: Q07DX002 (ip), vehicle: saline with Tween-80): 93 % of control | T/C (dose: 40.0 mg/kg/injection, schedule: Q07DX002 (ip), vehicle: saline with Tween-80): 28 % of control | T/C (dose: 45.0 mg/kg/injection, schedule: Q07DX002 (ip), vehicle: saline with Tween-80): 71 % of control | T/C (dose: 80.0 mg/kg/injection, schedule: Q07DX002 (ip), vehicle: saline with Tween-80): 20 % of control | T/C (dose: 90.0 mg/kg/injection, schedule: Q07DX002 (ip), vehicle: saline with Tween-80): 109 % of control

O=C1C(=O)c2ccccc2C(O)=C1CC=C(Cl)Cl
T/C (dose: 25.0 mg/kg/injection, schedule: Q07DX002 (ip), vehicle: other): 81 % of control | T/C (dose: 50.0 mg/kg/injection, schedule: Q07DX002 (ip), vehicle: other): 90 % of control | T/C (dose: 100.0 mg/kg/injection, schedule: Q07DX002 (ip), vehicle: other): 124 % of control | T/C (dose: 200.0 mg/kg/injection, schedule: Q07DX002 (ip), vehicle: other): 190 % of control

NC(=O)Oc1cccc(OC(N)=O)c1
T/C (dose: 25.0 mg/kg/injection, schedule: Q07DX003 (ip), vehicle: other): 63 % of control | T/C (dose: 50.0 mg/kg/injection, schedule: Q07DX003 (ip), vehicle: other): 103 % of control | T/C (dose: 100.0 mg/kg/injection, schedule: Q07DX003 (ip), vehicle: other): 51 % of control | T/C (dose: 200.0 mg/kg/injection, schedule: Q07DX003 (ip), vehicle: other): 68 % of control | T/C (dose: 400.0 mg/kg/injection, schedule: Q07DX003 (ip), vehicle: other): 75 % of control
